Results as given in PubChem BioAssay (NCI).
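Interpolation was linear, between the two tested concentrations surrounding the appropriate level; five concentrations were tested over 48 hours in 96-well plates. At the TGI there is no net growth.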

Legend:
Experiment in all cases: growth of human tumour cells (NCI), 48 h
LOX IMVI melanoma = system: LOX IMVI melanoma
MDA-MB-231 breast = system: MDA-MB-231 breast
NCI-H460 lung = system: NCI-H460 lung
NCI/ADR-RES ovarian = system: NCI/ADR-RES ovarian
OVCAR-8 ovarian = system: OVCAR-8 ovarian
RPMI-8226 leukemia = system: RPMI-8226 leukemia
RXF 393 renal = system: RXF 393 renal
SK-MEL-28 melanoma = system: SK-MEL-28 melanoma
SNB-75 CNS = system: SNB-75 CNS
UACC-62 melanoma = system: UACC-62 melanoma

| Structure (SMILES) | TGI (LOX IMVI melanoma) [µM] | TGI (MDA-MB-231 breast) [µM] | TGI (NCI-H460 lung) [µM] | TGI (NCI/ADR-RES ovarian) [µM] | TGI (OVCAR-8 ovarian) [µM] | TGI (RPMI-8226 leukemia) [µM] | TGI (RXF 393 renal) [µM] | TGI (SK-MEL-28 melanoma) [µM] | TGI (SNB-75 CNS) [µM] | TGI (UACC-62 melanoma) [µM] |
| --- | --- | --- | --- | --- | --- | --- | --- | --- | --- | --- |
| Cc1nc(NC(C)(CO)CO)nc(N/N=C/c2ccc(Cl)cc2)c1C(=O)Nc1ccc(Cl)cc1 | > 100 | > 100 | > 100 | > 100 | > 100 | > 100 | > 100 | > 100 | > 100 | > 100 |
| CN(CCCCCl)P(=O)(OCc1ccc([N+](=O)[O-])o1)OCC1OC(n2ccc(N)nc2=O)C(O)C1O (stereo not given) | 20.5 | 67.3 | 68.3 | > 100 | > 100 | 6.07 | 60.2 | > 100 | 5.59 | 40.6 |
| N#Cc1c(-c2ccc([N+](=O)[O-])cc2)c(C#N)c(=O)n(NS(=O)(=O)c2ccccc2)c1S | 38 | 44.7 | > 100 | > 100 | > 100 | 44.6 | > 100 | > 100 | > 100 | 60.3 |
| COc1cc(CCNC2=CC(=O)c3nc[nH]c3C2=O)ccc1O | 45.7 | > 100 | > 100 | > 100 | 47.6 | 68.7 | > 100 | 60.4 | 40.4 | 36.8 |
| FC1=C2C3CCC(C3)C2C1(F)F (stereo not given) | > 100 | > 100 | > 100 | > 100 | > 100 | > 100 | > 100 | > 100 | > 100 | > 100 |
| O=CCCCCCOCc1ccccc1 | 34.9 | > 100 | > 54.9 | > 100 | > 100 | > 56.8 | > 100 | > 100 | > 100 | > 89.4 |
| CN1CCN(C(=O)c2cn(Cc3cncn3Cc3ccc4c(c3)OCO4)cc2-c2cccc3ccccc23)CC1 | 47.8 | 33.3 | > 100 | > 100 | > 100 | 38.7 | > 100 | 63.6 | 67.9 | 46.8 |
| O=C1NC(O)c2cc3ccccc3cc2O1 (stereo not given) | 95.3 | > 100 | > 100 | > 100 | > 100 | > 100 | > 100 | > 100 | > 100 | 48.5 |
| Oc1ccc(C(O)C2CCCCN2)cc1O (stereo not given) | 65.5 | > 100 | > 100 | > 100 | > 100 | > 100 | > 100 | > 100 | > 100 | > 100 |
| C[n+]1cccc2ccc3cccnc3c21 | > 100 | > 100 | > 100 | > 100 | > 100 | > 100 | > 100 | > 100 | 65.1 | > 100 |
| COc1cc2c(/C=C3/C(=O)Nc4ccccc43)c(Cl)n(Cc3ccc(Cl)cc3)c2cc1C | 2.54 | 0.754 | 2.3 | 0.612 | 0.989 | 0.925 | 4.85 | 22.9 | 0.898 | 2.5 |
| ClC1=NN=C(c2c[nH]c3ccccc23)CC1NCc1ccccc1 (stereo not given) | > 100 | > 100 | > 100 | > 100 | > 100 | > 100 | > 100 | > 100 | > 100 | > 100 |
| COC(=N)C1(C#N)NC(c2ccsc2)C(C#N)(C#N)NC1c1ccsc1 (stereo not given) | > 100 | > 100 | > 100 | > 100 | > 100 | > 100 | > 100 | > 100 | > 100 | > 100 |
| CC(=O)CC1(CBr)Nc2ccc([N+](=O)[O-])cc2NC1=O (stereo not given) | > 100 | > 100 | > 100 | > 100 | > 100 | > 100 | > 100 | > 100 | > 100 | > 100 |
| CCc1nc(N)c2nc(-c3cccs3)oc2n1 | > 100 | > 100 | > 100 | > 100 | > 100 | > 100 | > 100 | > 100 | > 100 | > 100 |
| C[C@]12CC[C@H]3[C@@H](CC=C4C[C@@H](N5CCCC5)CC[C@@]43C)[C@@H]1C[C@H](N1CCCCC1)[C@@H]2O | > 100 | > 100 | > 100 | > 100 | > 100 | 85.7 | > 100 | > 100 | > 100 | > 100 |
| Cn1c(=O)c2c(nc3[nH]c(=O)c(Br)cn32)n(C)c1=O | > 100 | > 100 | > 100 | > 100 | > 100 | > 100 | > 100 | > 100 | > 100 | > 100 |
